Data published in article PMC5218480 (PLoS ONE, 2017).

Test system: MV-4-11 cells
Test: Gene expression microarray analysis (Affymetrix PrimeView) and GSEA
Format: cell-based, human
Set-up: RFU PODN (11730768_x_at) / Fold change /veh PODN (11730768_x_at) / RFU LINC00158 (11744669_a_at) / Fold change /veh LINC00158 (11744669_a_at) / RFU DUSP10 (11751237_a_at) / Fold change /veh DUSP10 (11751237_a_at) / RFU ID3 (11757404_x_at) / Fold change /veh ID3 (11757404_x_at) / RFU PLEKHG5 (11737974_s_at) / Fold change /veh PLEKHG5 (11737974_s_at) / RFU LRRC4B (11730491_at) / Fold change /veh LRRC4B (11730491_at) / RFU GIMAP4 (11747438_a_at) / Fold change /veh GIMAP4 (11747438_a_at) / RFU KRT8 (11758183_x_at) / Fold change /veh KRT8 (11758183_x_at) / RFU CNN1 (11734310_a_at) / Fold change /veh CNN1 (11734310_a_at) / RFU VPS37D (11726825_at) / Fold change /veh VPS37D (11726825_at) / RFU C10orf10 (11716522_x_at) / Fold change /veh C10orf10 (11716522_x_at) / RFU KIR2DL2 /// KIR2DL4 /// KIR2DL5A /// KIR2DL5B /// KIR2DS1 /// KIR2DS2 /// KIR2DS3 /// KIR2DS4 /// KIR3DL3 /// KIR3DL3 /// KIR3DS1 (11738374_at) / Fold change /veh KIR2DL2 /// KIR2DL4 /// KIR2DL5A /// KIR2DL5B /// KIR2DS1 /// KIR2DS2 /// KIR2DS3 /// KIR2DS4 /// KIR3DL3 /// KIR3DL3 /// KIR3DS1 (11738374_at) / RFU C1QL1 (11718748_at) / Fold change /veh C1QL1 (11718748_at) / RFU TMPRSS4 (11747572_a_at) / Fold change /veh TMPRSS4 (11747572_a_at) / RFU HAMP (11756126_x_at) / Fold change /veh HAMP (11756126_x_at) / RFU RNFT2 (11725882_a_at) / Fold change /veh RNFT2 (11725882_a_at) / RFU NR4A2 (11747474_a_at) / Fold change /veh NR4A2 (11747474_a_at) / RFU ABCC12 (11746883_a_at) / Fold change /veh ABCC12 (11746883_a_at) / RFU TMEM136 (11760407_x_at) / Fold change /veh TMEM136 (11760407_x_at) / RFU CLDN22 /// WWC2 (11732394_at) / Fold change /veh CLDN22 /// WWC2 (11732394_at) / RFU HLA-DPB1 (11760878_x_at) / Fold change /veh HLA-DPB1 (11760878_x_at) / RFU SPINT1 (11716480_a_at) / Fold change /veh SPINT1 (11716480_a_at) / RFU GAP43 (11754022_s_at) / Fold change /veh GAP43 (11754022_s_at) / RFU A4GNT (11735810_at) / Fold change /veh A4GNT (11735810_at) / RFU PRB3 (11715151_x_at) / Fold change /veh PRB3 (11715151_x_at) / RFU TUBB4B (11761932_at) / Fold change /veh TUBB4B (11761932_at) / RFU CAPN14 (11732068_a_at) / Fold change /veh CAPN14 (11732068_a_at) / RFU TMCC2 (11721928_a_at) / Fold change /veh TMCC2 (11721928_a_at) / RFU IRGQ (11745062_a_at) / Fold change /veh IRGQ (11745062_a_at) / RFU FAM174B (11720279_a_at) / Fold change /veh FAM174B (11720279_a_at) / RFU TMPRSS4 (11748680_a_at) / Fold change /veh TMPRSS4 (11748680_a_at) / RFU FAM212B (11763350_a_at) / Fold change /veh FAM212B (11763350_a_at) / RFU PLEKHG5 (11743358_a_at) / Fold change /veh PLEKHG5 (11743358_a_at) / RFU ZSCAN30 (11745921_a_at) / Fold change /veh ZSCAN30 (11745921_a_at) / RFU CMKLR1 (11741424_a_at) / Fold change /veh CMKLR1 (11741424_a_at) / RFU LOC101060620 /// MAPK8IP1 (11723275_at) / Fold change /veh LOC101060620 /// MAPK8IP1 (11723275_at) / RFU SPTSSB (11747773_x_at) / Fold change /veh SPTSSB (11747773_x_at) / RFU PRSS12 (11739890_at) / Fold change /veh PRSS12 (11739890_at) / RFU BIN1 (11741810_x_at) / Fold change /veh BIN1 (11741810_x_at) / RFU WNT11 (11732464_a_at) / Fold change /veh WNT11 (11732464_a_at) / RFU C10orf10 (11716521_a_at) / Fold change /veh C10orf10 (11716521_a_at) / RFU C5orf56 (11738089_at) / Fold change /veh C5orf56 (11738089_at) / RFU CYB561 (11721691_x_at) / Fold change /veh CYB561 (11721691_x_at) / RFU ANKRD19P (11752326_a_at) / Fold change /veh ANKRD19P (11752326_a_at) / RFU OR2T12 /// OR2T33 /// OR2T8 (11738714_s_at) / Fold change /veh OR2T12 /// OR2T33 /// OR2T8 (11738714_s_at) / RFU VCAN (11748164_a_at) / Fold change /veh VCAN (11748164_a_at) / RFU JSRP1 (11732532_at) / Fold change /veh JSRP1 (11732532_at) / RFU KRTAP10-11 (11738290_x_at) / Fold change /veh KRTAP10-11 (11738290_x_at) / RFU MYO3A (11730013_a_at) / Fold change /veh MYO3A (11730013_a_at) / RFU EBF3 (11725865_a_at) / Fold change /veh EBF3 (11725865_a_at) / RFU CAMK2N1 (11719241_x_at) / Fold change /veh CAMK2N1 (11719241_x_at) / RFU C5orf56 (11738088_a_at) / Fold change /veh C5orf56 (11738088_a_at) / RFU OLFML3 (11715873_a_at) / Fold change /veh OLFML3 (11715873_a_at) / RFU LOC100653217 /// NTM (11731650_a_at) / Fold change /veh LOC100653217 /// NTM (11731650_a_at) / RFU MAPK11 (11762145_a_at) / Fold change /veh MAPK11 (11762145_a_at) / RFU FIZ1 (11724087_x_at) / Fold change /veh FIZ1 (11724087_x_at) / RFU OASL (11726364_x_at) / Fold change /veh OASL (11726364_x_at) / RFU SOX15 (11748057_x_at) / Fold change /veh SOX15 (11748057_x_at) / RFU CD79A (11719716_a_at) / Fold change /veh CD79A (11719716_a_at) / RFU HIST1H1D (11736915_at) / Fold change /veh HIST1H1D (11736915_at) / RFU CASKIN2 (11723855_a_at) / Fold change /veh CASKIN2 (11723855_a_at) / RFU LOC730098 (11760151_x_at) / Fold change /veh LOC730098 (11760151_x_at) / RFU OR4N2 (11742367_at) / Fold change /veh OR4N2 (11742367_at) / RFU PRRT2 (11749266_a_at) / Fold change /veh PRRT2 (11749266_a_at) / RFU SNX32 (11753110_a_at) / Fold change /veh SNX32 (11753110_a_at) / RFU CDHR5 (11726645_a_at) / Fold change /veh CDHR5 (11726645_a_at) / RFU RCAN1 (11760418_a_at) / Fold change /veh RCAN1 (11760418_a_at) / RFU FAM167A (11723789_a_at) / Fold change /veh FAM167A (11723789_a_at) / RFU FAM26E (11764081_at) / Fold change /veh FAM26E (11764081_at) / RFU ISYNA1 (11749810_s_at) / Fold change /veh ISYNA1 (11749810_s_at) / RFU ACY1 (11761880_at) / Fold change /veh ACY1 (11761880_at) / RFU 11764098_at / Fold change /veh 11764098_at / RFU SAMD14 (11745864_x_at) / Fold change /veh SAMD14 (11745864_x_at) / RFU NPB (11741838_a_at) / Fold change /veh NPB (11741838_a_at) / RFU TMPRSS6 (11731388_a_at) / Fold change /veh TMPRSS6 (11731388_a_at) / RFU KRTAP10-2 (11738614_at) / Fold change /veh KRTAP10-2 (11738614_at) / RFU ARHGAP8 /// PRR5-ARHGAP8 (11727945_x_at) / Fold change /veh ARHGAP8 /// PRR5-ARHGAP8 (11727945_x_at) / RFU KRTAP5-7 /// NADSYN1 (11734609_at) / Fold change /veh KRTAP5-7 /// NADSYN1 (11734609_at) / RFU RASL12 (11751679_a_at) / Fold change /veh RASL12 (11751679_a_at) / RFU CDKN2B (11736163_a_at) / Fold change /veh CDKN2B (11736163_a_at) / RFU PRF1 (11729649_at) / Fold change /veh PRF1 (11729649_at) / RFU, ZNF638 /// ZNF638-IT1 / Fold change vs veh, ZNF638 /// ZNF638-IT1 / RFU, PANK3 / Fold change vs veh, PANK3 / RFU, SH3YL1 / Fold change vs veh, SH3YL1 / RFU, ZEB2 / Fold change vs veh, ZEB2 / RFU, NRIP1 / Fold change vs veh, NRIP1 / RFU, PTTG1IP / Fold change vs veh, PTTG1IP / RFU, CAPN2 / Fold change vs veh, CAPN2 / RFU, MED14 / Fold change vs veh, MED14 / RFU, SNORA58 / Fold change vs veh, SNORA58 / RFU, C1orf63 / Fold change vs veh, C1orf63 / RFU, LRRFIP1 / Fold change vs veh, LRRFIP1 / RFU, NDUFAF7 / Fold change vs veh, NDUFAF7 / RFU, SLC12A2 / Fold change vs veh, SLC12A2 / RFU, IBTK / Fold change vs veh, IBTK / RFU, ESF1 / Fold change vs veh, ESF1 / Fold change vs veh, TMEM50B / RFU, TAOK1 / Fold change vs veh, TAOK1 / RFU, ACBD3 / Fold change vs veh, ACBD3 / RFU, TMA16 / Fold change vs veh, TMA16 / RFU, RWDD3 / Fold change vs veh, RWDD3 / RFU, BCAT1 / Fold change vs veh, BCAT1 / RFU, EDEM3 / Fold change vs veh, EDEM3 / RFU, TMEM33 / Fold change vs veh, TMEM33 / RFU, WDR75 / Fold change vs veh, WDR75 / RFU, AHCTF1 / Fold change vs veh, AHCTF1 / RFU, TFRC / Fold change vs veh, TFRC / RFU, ZDHHC17 / Fold change vs veh, ZDHHC17 / RFU, NOM1 / Fold change vs veh, NOM1 / RFU, ARL8B / Fold change vs veh, ARL8B / RFU, ZBTB11 / Fold change vs veh, ZBTB11 / RFU, TAMM41 / Fold change vs veh, TAMM41 / RFU, KIAA1704 /// LOC100996395 / Fold change vs veh, KIAA1704 /// LOC100996395 / RFU, ING1 / Fold change vs veh, ING1 / RFU, TRMT61B / Fold change vs veh, TRMT61B / RFU, FUBP3 / Fold change vs veh, FUBP3 / RFU, TP53 / Fold change vs veh, TP53 / RFU, TNKS2 / Fold change vs veh, TNKS2 / RFU, ZFP14 / Fold change vs veh, ZFP14 / RFU, ACTR2 / Fold change vs veh, ACTR2 / RFU, PPP3R1 / Fold change vs veh, PPP3R1 / RFU, PIK3R1 / Fold change vs veh, PIK3R1 / RFU, HNRNPA1 / Fold change vs veh, HNRNPA1 / RFU, RNF170 / Fold change vs veh, RNF170 / RFU, ZNF28 / Fold change vs veh, ZNF28 / RFU, RNGTT / Fold change vs veh, RNGTT / RFU, OGT / Fold change vs veh, OGT / RFU, BRD1 / Fold change vs veh, BRD1 / RFU, MARS / Fold change vs veh, MARS / RFU, ZNF655 / Fold change vs veh, ZNF655 / RFU, FAHD1 / Fold change vs veh, FAHD1 / RFU, BDP1 / Fold change vs veh, BDP1 / RFU, LRRCC1 / Fold change vs veh, LRRCC1 / RFU, ARID1A / Fold change vs veh, ARID1A / RFU, ZNF146 / Fold change vs veh, ZNF146 / RFU, ZNF330 / Fold change vs veh, ZNF330 / RFU, GPN3 / Fold change vs veh, GPN3 / RFU, C9orf123 / Fold change vs veh, C9orf123 / RFU, N4BP2L2 / Fold change vs veh, N4BP2L2 / RFU, ARFIP1 / Fold change vs veh, ARFIP1 / RFU, FAM179B / Fold change vs veh, FAM179B / RFU, BCL10 / Fold change vs veh, BCL10 / RFU, UHRF1BP1L / Fold change vs veh, UHRF1BP1L / RFU, BET1 / Fold change vs veh, BET1 / RFU, CNOT2 / Fold change vs veh, CNOT2 / RFU, ZNF268 / Fold change vs veh, ZNF268 / Fold change vs veh, ZNF507 / RFU, DGCR2 / Fold change vs veh, DGCR2 / RFU, WDSUB1 / Fold change vs veh, WDSUB1 / Fold change vs veh, HSP90B1 /// MIR3652 / RFU, ADSS / Fold change vs veh, ADSS / RFU, GK / Fold change vs veh, GK / RFU, ZNF148 / Fold change vs veh, ZNF148 / RFU, TAF9 / Fold change vs veh, TAF9 / RFU, SLC1A5 / Fold change vs veh, SLC1A5 / RFU, SLMO2 / Fold change vs veh, SLMO2 / RFU, ABCC4 / Fold change vs veh, ABCC4 / RFU, LOC101060439 /// RAP1B / Fold change vs veh, LOC101060439 /// RAP1B / RFU, RFX7 / Fold change vs veh, RFX7 / RFU, GTPBP10 / Fold change vs veh, GTPBP10 / RFU, CNEP1R1 / Fold change vs veh, CNEP1R1 / RFU, BIVM-ERCC5 /// ERCC5 / Fold change vs veh, BIVM-ERCC5 /// ERCC5 / RFU, ILF3 / Fold change vs veh, ILF3 / RFU 11762660_at / Fold change /veh 11762660_at / RFU VCAN (11757783_s_at) / Fold change /veh VCAN (11757783_s_at) / RFU DDX43 (11728927_at) / Fold change /veh DDX43 (11728927_at) / RFU KRT8 (11758188_x_at) / Fold change /veh KRT8 (11758188_x_at) / RFU NKD1 (11759106_at) / Fold change /veh NKD1 (11759106_at) / RFU SRD5A1 (11742802_a_at) / Fold change /veh SRD5A1 (11742802_a_at) / RFU TPSAB1 /// TPSB2 (11721975_s_at) / Fold change /veh TPSAB1 /// TPSB2 (11721975_s_at) / RFU GSTM3 (11746129_a_at) / Fold change /veh GSTM3 (11746129_a_at) / RFU IL23R (11737362_x_at) / Fold change /veh IL23R (11737362_x_at) / RFU TMEM51 (11727254_a_at) / Fold change /veh TMEM51 (11727254_a_at) / RFU PIWIL2 (11732686_x_at) / Fold change /veh PIWIL2 (11732686_x_at) / RFU ORM1 (11744905_x_at) / Fold change /veh ORM1 (11744905_x_at) / RFU CCDC152 (11743942_at) / Fold change /veh CCDC152 (11743942_at) / RFU ECM1 (11717891_a_at) / Fold change /veh ECM1 (11717891_a_at) / RFU IL23R (11748794_a_at) / Fold change /veh IL23R (11748794_a_at) / RFU TNFAIP8L3 (11732012_x_at) / Fold change /veh TNFAIP8L3 (11732012_x_at) / RFU MBOAT4 (11741988_at) / Fold change /veh MBOAT4 (11741988_at) / RFU 11764193_at / Fold change /veh 11764193_at / RFU TMEM53 (11763286_at) / Fold change /veh TMEM53 (11763286_at) / RFU MAGEB2 (11727129_at) / Fold change /veh MAGEB2 (11727129_at) / RFU TMEM200A (11744735_a_at) / Fold change /veh TMEM200A (11744735_a_at) / RFU CCDC152 (11751479_a_at) / Fold change /veh CCDC152 (11751479_a_at) / RFU FAM211A (11726209_a_at) / Fold change /veh FAM211A (11726209_a_at) / RFU RGS16 (11746705_a_at) / Fold change /veh RGS16 (11746705_a_at) / RFU VCAN (11755009_s_at) / Fold change /veh VCAN (11755009_s_at) / RFU RHOB (11743442_s_at) / Fold change /veh RHOB (11743442_s_at) / RFU RGS16 (11720943_a_at) / Fold change /veh RGS16 (11720943_a_at) / RFU RGS16 (11720944_at) / Fold change /veh RGS16 (11720944_at) / RFU, VPS4B / Fold change vs veh, VPS4B / RFU, CREB1 / Fold change vs veh, CREB1 / RFU, DNAJC13 / Fold change vs veh, DNAJC13 / RFU, GNAQ / Fold change vs veh, GNAQ / RFU, CDK5R1 / Fold change vs veh, CDK5R1 / RFU, ZRANB3 / Fold change vs veh, ZRANB3 / RFU, CUL4A / Fold change vs veh, CUL4A / RFU, CCNY / Fold change vs veh, CCNY / RFU, UFL1 / Fold change vs veh, UFL1 / RFU, COG3 / Fold change vs veh, COG3 / RFU, DIAPH2 / Fold change vs veh, DIAPH2 / RFU, SKA2 / Fold change vs veh, SKA2 / RFU, AFF3 / Fold change vs veh, AFF3 / RFU, LMF1 / Fold change vs veh, LMF1 / RFU, IPO11 / Fold change vs veh, IPO11 / RFU, DFFB / Fold change vs veh, DFFB / RFU, FOXP1 / Fold change vs veh, FOXP1 / RFU, CARD8 / Fold change vs veh, CARD8 / RFU, STRN3 / Fold change vs veh, STRN3 / RFU, ADK / Fold change vs veh, ADK / RFU, RASSF2 / Fold change vs veh, RASSF2 / RFU, WIPF1 / Fold change vs veh, WIPF1 / RFU, LARP1B / Fold change vs veh, LARP1B / RFU, RASA1 / Fold change vs veh, RASA1 / RFU, RB1 / Fold change vs veh, RB1 / RFU, PPFIA1 / Fold change vs veh, PPFIA1 / RFU, MAT2A / Fold change vs veh, MAT2A / RFU, CCT5 / Fold change vs veh, CCT5 / RFU, WDR92 / Fold change vs veh, WDR92 / RFU, CUX1 / Fold change vs veh, CUX1 / RFU, TTC7A / Fold change vs veh, TTC7A / RFU, TMEM135 / Fold change vs veh, TMEM135 / RFU, DEPTOR / Fold change vs veh, DEPTOR / RFU, CPM / Fold change vs veh, CPM / RFU, DNAJB6 / Fold change vs veh, DNAJB6 / RFU, CACNA2D3 / Fold change vs veh, CACNA2D3 / RFU, DTX4 / Fold change vs veh, DTX4 / RFU, TFCP2 / Fold change vs veh, TFCP2 / RFU, GMCL1 /// GMCL1P1 / Fold change vs veh, GMCL1 /// GMCL1P1 / RFU, AEBP2 / Fold change vs veh, AEBP2 / RFU, SNHG1 /// SNORD22 /// SNORD25 /// SNORD26 /// SNORD27 /// SNORD28 /// SNORD29 /// SNORD31 / Fold change vs veh, SNHG1 /// SNORD22 /// SNORD25 /// SNORD26 /// SNORD27 /// SNORD28 /// SNORD29 /// SNORD31 / Fold change (Aza/veh), C12orf56 (ProbeSet 11735607_a_at) / Fold change (ACY-1035/veh), C12orf56 (ProbeSet 11735607_a_at) / Fold change (Aza/veh), FGFR1OP (ProbeSet 11751329_s_at) / Fold change (ACY-1035/veh), FGFR1OP (ProbeSet 11751329_s_at) / Fold change (Aza/veh), VPS36 (ProbeSet 11739960_a_at) / Fold change (ACY-1035/veh), VPS36 (ProbeSet 11739960_a_at) / RFU SYPL1 (11715823_x_at) / Fold change /veh SYPL1 (11715823_x_at) / RFU IGFBP7 (11715501_s_at) / Fold change /veh IGFBP7 (11715501_s_at) / RFU REEP3 (11722064_at) / Fold change /veh REEP3 (11722064_at) / RFU IGLL1 (11728026_x_at) / Fold change /veh IGLL1 (11728026_x_at): dose or concentration left out as unconfirmed
Details: ProbeSet 11730501_a_at; LIST D

## Nc1ccc(-c2cccs2)cc1NC(=O)c1ccc2c(c1)cc(C1CC1)n2CCN1CCOCC1 [ACY-1035]
  Fold change vs veh, CACNA2D3: 1.05
